From patent US11130769B2 (Prelude Therapeutics Incorporated, priority 2018, dated 2021)

Key:
MCL-1 = MCL-1 (Homo sapiens (Human), UniProt Q07820); assay: Cell free Mcl-1:Bim affinity assay (fluorescence polarization competition); type: binding; settings: 15 nM MCL-1, 5 nM FITC-Bim, 1 hour at room temperature; class symbols; read-out: BIM_Ki
Method in brief: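 Compounds competed with FITC-labelled Bim peptide (5 nM) for MCL-1 (15 nM) in HEPES/NaCl buffer with 1% DMSO, 1 h at room temperature. Fluorescence polarization (535 nm emission) gave % inhibition versus DMSO and positive controls; IC50 from 10-point curves, converted to Ki by the Nikolovska-Coleska equation.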

H929 cells = assay: Cell viability assay (H929 10 FBS); type: cell-based; settings: Homo sapiens, NCI-H929, 24 hours, read-out: H929_10FBS IC50
Method in brief: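 H929 cells, 4000/well, in RPMI 1640 with 10% FBS, sodium pyruvate, HEPES and glucose were exposed to compound 24 h at 37 °C. Viability read as luminescence after 30-60 min at RT with CellTiter-Glo or ATPlite 1 Step.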

Sequence of MCL-1 (Q07820 whole entry): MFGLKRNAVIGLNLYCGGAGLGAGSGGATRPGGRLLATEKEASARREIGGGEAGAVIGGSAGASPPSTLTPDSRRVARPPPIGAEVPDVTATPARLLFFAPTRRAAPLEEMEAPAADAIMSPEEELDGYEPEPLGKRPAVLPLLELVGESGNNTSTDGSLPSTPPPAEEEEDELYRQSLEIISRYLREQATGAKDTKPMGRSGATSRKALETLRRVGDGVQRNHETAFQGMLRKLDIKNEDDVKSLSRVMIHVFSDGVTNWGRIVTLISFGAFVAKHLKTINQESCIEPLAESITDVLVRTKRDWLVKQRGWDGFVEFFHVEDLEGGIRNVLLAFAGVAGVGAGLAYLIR

Ki (MCL-1) [nM] | IC50 (H929 cells) [nM] | SMILES
< 1 | > 1000 | CN1C(=O)OC[C@@H]2CC[C@H]2CN2C[C@@]3(CCCc4cc(Cl)ccc43)COc3ccc(cc32)S(=O)(=O)NC(=O)N2CC[C@H]1C2 [Example 103, (3R,6R,11S,24S)-6′-Chloro-10-methyl-17,17-dioxo-spiro[8,22-dioxa-17λ^6-thia-1,10,14,16-tetrazapentacyclo[16.7.2.1^11,14.0{circumflex over (°)}3,6.0^21,26]octacosa-18,20,26-triene-24,1′-tetralin]-9,15-dione]
1 to 100 | > 1000 | O=C1Cc2cc(OCCN3CCOCC3)cc(c2)OC[C@@H]2CC[C@H]2CN2C[C@@]3(CCCc4cc(Cl)ccc43)COc3ccc(cc32)S(=O)(=O)N1 [Example 105, (3R,6R,24S)-6′-Chloro-11-(2-morpholinoethoxy)-17,17-dioxo-spiro[8,22-dioxa-17-thia-1,16-diazapentacyclo[16.7.2.19,13.03,6.021,26]octacosa-9(28),10,12,18(27),19,21(26)-hexaene-24,1′-tetralin]-15-one]
1 to 100 | < 1000 | CO[C@@H]1/C=C/CCN(C)C(=O)NS(=O)(=O)c2ccc3c(c2)N(C[C@@H]2CC[C@H]21)C[C@@]1(CCCc2cc(Cl)ccc21)CO3 [Example 107, (3R,6R,7R,8E,22S)-6′-Chloro-7-methoxy-12-methyl-15,15-dioxo-spiro[20-oxa-15-thia-1,12,14-triazatetracyclo[14.7.2.03,6.019,24]pentacosa-8,16,18,24-tetraene-22,1′-tetralin]-13-one]
1 to 100 | > 1000 | CC(C)N1CCN(CC2(O)/C=C/COC(C)(C)C(=O)NS(=O)(=O)c3ccc4c(c3)N(C[C@@H]3CC[C@H]32)C[C@@]2(CCCc3cc(Cl)ccc32)CO4)CC1 (stereo partly drawn) [Example 109, (3R,6R,8E,22S)-6′-Chloro-7-hydroxy-7-[(4-isopropylpiperazin-1-yl)methyl]-12,12-dimethyl-15,15-dioxo-spiro[11,20-dioxa-15-thia-1,14-diazatetracyclo[14.7.2.03,6.019,24]pentacosa-8,16,18,24-tetraene-22,1′-tetralin]-13-one]
< 1 | < 1000 | CO[C@@H]1/C=C/CO[C@@H](C)C(=O)NS(=O)(=O)c2ccc3c(c2)N(C[C@@H]2CC[C@H]21)C[C@@]1(CCCc2cc(Cl)ccc21)CO3 [Example 114, (3R,6R,7R,8E,12S,22S)-6′-Chloro-7-methoxy-12-methyl-15,15-dioxo-spiro[11,20-dioxa-15-thia-1,14-diazatetracyclo[14.7.2.03,6.019,24]pentacosa-8,16,18,24-tetraene-22,1′-tetralin]-13-one]
1 to 100 | > 1000 | CO[C@@H]1/C=C/CO[C@H](C)C(=O)NS(=O)(=O)c2ccc3c(c2)N(C[C@@H]2CC[C@H]21)C[C@@]1(CCCc2cc(Cl)ccc21)CO3 [Example 115, (3R,6R,7R,8E,12R,22S)-6′-Chloro-7-methoxy-12-methyl-15,15-dioxo-spiro[11,20-dioxa-15-thia-1,14-diazatetracyclo[14.7.2.03,6.019,24]pentacosa-8,16,18,24-tetraene-22,1′-tetralin]-13-one]
1 to 100 | < 1000 | CO[C@@H]1/C=C/CNC2(CCC2)C(=O)NS(=O)(=O)c2ccc3c(c2)N(C[C@@H]2CC[C@H]21)C[C@@]1(CCCc2cc(Cl)ccc21)CO3 [Example 116, (3R,6R,7R,8E,22S)-6′-Chloro-7-methoxy-12,12-(1,3-propylene)-15,15-dioxo-spiro[[20]oxa-15-thia-1,11,14-triazatetracyclo[14.7.2.03,6.019,24]pentacosa[8,16(25),17,19(24)]tetraene-22,1′-tetralin]-13-one]

Continued, compound first:

SMILES | Ki (MCL-1) [nM] | IC50 (H929 cells) [nM]
CO[C@@H]1/C=C/CC[C@@H](CO)C(=O)NS(=O)(=O)c2ccc3c(c2)N(C[C@@H]2CC[C@H]21)C[C@@]1(CCCc2cc(Cl)ccc21)CO3 [Example 95, (3R,6R,7R,8E,12S,22S)-6′-Chloro-12-(hydroxymethyl)-7-methoxy-15,15-dioxo-spiro[20-oxa-15-thia-1,14-diazatetracyclo[14.7.2.03,6.019,24]pentacosa-8,16,18,24-tetraene-22,1′-tetralin]-13-one] | 1 to 100 | > 1000
COC[C@@H]1CC/C=C/[C@@H](OC)[C@@H]2CC[C@H]2CN2C[C@@]3(CCCc4cc(Cl)ccc43)COc3ccc(cc32)S(=O)(=O)NC1=O [Example 96, (3R,6R,7R,8E,12S,22S)-6′-Chloro-12-(methoxymethyl)-7-methoxy-15,15-dioxo-spiro[20-oxa-15-thia-1,14-diazatetracyclo[14.7.2.03,6.019,24]pentacosa-8,16,18,24-tetraene-22,1′-tetralin]-13-one] | < 1 | > 1000
COCCOC[C@@H]1CC/C=C/[C@@H](OC)[C@@H]2CC[C@H]2CN2C[C@@]3(CCCc4cc(Cl)ccc43)COc3ccc(cc32)S(=O)(=O)NC1=O [Example 97, (3R,6R,7R,8E,12S,22S)-6′-Chloro-12-((2-methoxyethoxy)methyl)-7-methoxy-15,15-dioxo-spiro[20-oxa-15-thia-1,14-diazatetracyclo[14.7.2.03,6.019,24]pentacosa-8,16,18,24-tetraene-22,1′-tetralin]-13-one] | < 1 | > 1000
O=C1Cc2cccc(c2)S(=O)(=O)C[C@@H]2CC[C@H]2CN2C[C@@]3(CCCc4cc(Cl)ccc43)COc3ccc(cc32)S(=O)(=O)N1 [Example 98, (3R,6R,24S)-6′-Chloro-8,8,17,17-tetraoxo-spiro[22-oxa-8,17-dithia-1,16-diazapentacyclo[16.7.2.19,13.03,6.021,26]octacosa-9(28),10,12,18(27),19,21(26)-hexaene-24,1′-tetralin]-15-one] | 1 to 100 | > 1000
CN1C(=O)OC[C@@H]2CC[C@H]2CN2C[C@@]3(CCCc4cc(Cl)ccc43)COc3ccc(cc32)S(=O)(=O)NC(=O)N2CC[C@@H]1C2 [Example 101, (3R,6R,11R,24S)-6′-Chloro-10-methyl-17,17-dioxo-spiro[8,22-dioxa-17-thia-1,10,14,16-tetrazapentacyclo[16.7.2.111,14.03,6.021,26]octacosa-18(27),19,21(26)-triene-24,1′-tetralin]-9,15-dione] | < 1 | > 1000
O=C1N[C@@H]2CCN(C2)C(=O)NS(=O)(=O)c2ccc3c(c2)N(C[C@@H]2CC[C@H]2CO1)C[C@@]1(CCCc2cc(Cl)ccc21)CO3 [Example 102, (3R,6R,11R,24S)-6′-Chloro-17,17-dioxo-spiro[8,22-dioxa-17-thia-1,10,14,16-tetrazapentacyclo[16.7.2.111,14.03,6.021,26]octacosa-18(27),19,21(26)-triene-24,1′-tetralin]-9,15-dione] | 1 to 100 | > 1000
CO[C@H]1/C=C/COCC(=O)NS(=O)(=O)c2ccc3c(c2)N(C[C@@H]2CC[C@H]21)C[C@@]1(CCCc2cc(Cl)ccc21)CO3 [Example 111, (3R,6R,7S,8E,22S)-6′-Chloro-7-methoxy-15,15-dioxo-spiro[[11,20]dioxa[15]thia-1,14-diazatetracyclo[14.7.2.03,6.019,24]pentacosa[8,16(25),17,19(24)]tetraene-22,1′-tetralin]-13-one] | 1 to 100 | > 1000
CO[C@@H]1/C=C/COCC(=O)NS(=O)(=O)c2ccc3c(c2)N(C[C@@H]2CC[C@H]21)C[C@@]1(CCCc2cc(Cl)ccc21)CO3 [Example 112, (3R,6R,7R,8E,22S)-6′-Chloro-7-methoxy-15,15-dioxo-spiro[[11,20]dioxa[15]thia-1,14-diazatetracyclo[14.7.2.03,6.019,24]pentacosa[8,16(25),17,19(24)]tetraene-22,1′-tetralin]-13-one] | 1 to 100 | > 1000
CC(=O)O[C@H]1/C=C/CO[C@@H](C)C(=O)NS(=O)(=O)c2ccc3c(c2)N(C[C@@H]2CC[C@H]21)C[C@@]1(CCCc2cc(Cl)ccc21)CO3 [Example 113, [(3R,6R,7S,8E,12S,22S)-6′-Chloro-12-methyl-13,15,15-trioxo-spiro[11,20-dioxa-15-thia-1,14-diazatetracyclo[14.7.2.03,6.019,24]pentacosa-8,16,18,24-tetraene-22,1′-tetralin]-7-yl] acetate] | < 1 | < 1000
CO[C@@H]1/C=C/CN[C@@H](C)C(=O)NS(=O)(=O)c2ccc3c(c2)N(C[C@@H]2CC[C@H]21)C[C@@]1(CCCc2cc(Cl)ccc21)CO3 [Example 117, (3R,6R,7R,8E,12S,22S)-6′-Chloro-7-methoxy-12-methyl-15,15-dioxo-spiro[20-oxa-15-thia-1,11,14-triazatetracyclo[14.7.2.03,6.019,24]pentacosa-8,16(25),17,19(24)-tetraene-22,1′-tetralin]-13-one] | 1 to 100 | > 1000
CO[C@@H]1/C=C\CN[C@@H](C)C(=O)NS(=O)(=O)c2ccc3c(c2)N(C[C@@H]2CC[C@H]21)C[C@@]1(CCCc2cc(Cl)ccc21)CO3 [Example 118, (3R,6R,7R,8Z,12S,22S)-6′-Chloro-7-methoxy-12-methyl-15,15-dioxo-spiro[20-oxa-15-thia-1,11,14-triazatetracyclo[14.7.2.03,6.019,24]pentacosa-8,16(25),17,19(24)-tetraene-22,1′-tetralin]-13-one] | 1 to 100 | > 1000
CO[C@@H]1/C=C/CNC2(CC2)C(=O)NS(=O)(=O)c2ccc3c(c2)N(C[C@@H]2CC[C@H]21)C[C@@]1(CCCc2cc(Cl)ccc21)CO3 [Example 119, (3R,6R,7R,8E,22S)-6′-Chloro-7-methoxy-12,12-ethylene-15,15-dioxo-spiro[20-oxa-15-thia-1,11,14-triazatetracyclo[14.7.2.03,6.019,24]pentacosa[8,16(25),17,19(24)]tetraene-22,1′-tetralin]-13-one] | 1 to 100 | < 1000
